Test results: patent US12662482B2 (The Johns Hopkins University, priority 2020, dated 2026)
Structures can show the parent of a compound that is named as a salt.

Tested on: RPA194
Experiment: RPA194 destruction / Pol I inhibition, high-content imaging in A375 cells
Format: cell-based
Conditions: A375 cells treated for 4 hours, anti-RPA194 immunofluorescence; pIC50 >= 5.02 deemed a Pol I inhibitor
Method: Cell culture: A375 cells (CRL-1619, ATCC) were grown in DMEM (GJBCO) supplemented with […] (GTBCO) in 5% CO2 at 37° C.
Cell treatment and Imaging: 18 hours post-seeding in cell carrier black 384-well plates (PerkinElmer) at 15 000 cells/well, A375 cells were treated for 4 hours with a positive control or test compounds (9 serial semi-log dilutions, top concentration 10 μM). Upon treatment A375 cells were (i) fixed for 15 min at RT with 4% of paraformaldehyde, (ii) permeabilized for 20 min at RT with 0.1-0.5% of NP-40, (iii) incubated with primary antibodies at 4° C.: anti-RPA194 (1:1000-1:1250 dilution, sc-48385, Santa Cruz Biotechnology) and anti-gH2Ax (1:5000 dilution, 81299, Abcam or 1:4000, JBW302, Millipore) (iv) incubated for 1 h at RT with Hoechst (1:5000 dilution, H3570, ThermoFisher) and secondary antibodies: anti-mouse-AlexaFluor488 (1:2000 dilution, A11001, ThermoFisher) and anti-rabbit-AlexaFluor647 (1:2000 dilution, A21443, ThermoFisher) or goat anti-mouse AlexaFluor-594 (1:1000 dilution). Images were acquired on an Operetta CLS High-Content Analysis System (PerkinElmer) (40× objective; 9 fields/well) and processed using the Columbus Image Analysis System (PerkinElmer) or by using Molecular Devices ImageXpress Micro XLS High Content Imager and MetaXpress high-content acquisition and analysis software.
In the table below, (+) is associated with a pIC50 5.02 to 5.8; (++) with pIC50 5.8 to 6.3; and (+++) with a pIC50 above 6.3.

Row | SMILES | Activity Range (pIC50)
1 | CCN(CC)CCNC(=O)c1cccn2c(=O)c3ccc4ccccc4c3nc12 [Example 12, N-(2-(diethylamino)ethyl)-7-oxo-7H-benzo[h]pyrido[2,1-b]quinazoline-12-carboxamide; hydrochloride] | ++ ((++) with pIC50 5.8 to 6.3)
2 | C[C@@H](CN(C)C)NC(=O)c1cccn2c(=O)c3ccc4ccccc4c3nc12 [Example 13, (S)-N-(1-(dimethylamino)propan-2-yl)-7-oxo-7H-benzo[h]pyrido[2,1-b]quinazoline-12-carboxamide; hydrochloride] | ++ ((++) with pIC50 5.8 to 6.3)
3 | C[C@H](CN(C)C)NC(=O)c1cccn2c(=O)c3ccc4ccccc4c3nc12 [Example 14, (R)-N-(1-(dimethylamino)propan-2-yl)-7-oxo-7H-benzo[h]pyrido[2,1-b]quinazoline-12-carboxamide; hydrochloride] | +++ ((+++) with a pIC50 above 6.3)
4 | O=C(NCCN1CCCCC1)c1cccn2c(=O)c3ccc4ccccc4c3nc12 [Example 15, 7-oxo-N-(2-(piperidin-1-yl)ethyl)-7H-benzo[h]pyrido[2,1-b]quinazoline-12-carboxamide; hydrochloride] | ++ ((++) with pIC50 5.8 to 6.3)
5 | CNCCNC(=O)c1cccn2c(=O)c3ccc4ccccc4c3nc12 [Example 16, N-(2-(methylamino)ethyl)-7-oxo-7H-benzo[h]pyrido[2,1-b]quinazoline-12-carboxamide hydrochloride] | +++ ((+++) with a pIC50 above 6.3)
6 | NCCNC(=O)c1cccn2c(=O)c3ccc4ccccc4c3nc12 [Example 17, N-(2-aminoethyl)-7-oxo-7H-benzo[h]pyrido[2,1-b]quinazoline-12-carboxamide hydrochloride] | + ((+) is associated with a pIC50 5.02 to 5.8)
7 | CCN(C)CCNC(=O)c1cccn2c(=O)c3ccc4ccccc4c3nc12 [Example 18, N-(2-(ethyl(methyl)amino)ethyl)-7-oxo-7H-benzo[h]pyrido[2,1-blquinazoline-12-carboxamide hydrochloride] | +++ ((+++) with a pIC50 above 6.3)
8 | CC1(C)CCN(CCNC(=O)c2cccn3c(=O)c4ccc5ccccc5c4nc23)C1 [Example 21, N-(2-(3,3-dimethylpyrrolidin-1-yl)ethyl)-7-oxo-7H-benzo[h]pyrido[2,1-b]quinazoline-12-carboxamide hydrochloride] | ++ ((++) with pIC50 5.8 to 6.3)
9 | O=C1CCN(CCNC(=O)c2cccn3c(=O)c4ccc5ccccc5c4nc23)CC1 [Example 22, 7-oxo-N-(2-(4-oxopiperidin-1-yl)ethyl)-7H-benzo[h]pyrido[2,1-b]quinazoline-12-carboxamide hydrochloride] | ++ ((++) with pIC50 5.8 to 6.3)
10 | CO[C@H]1CCN(CCNC(=O)c2cccn3c(=O)c4ccc5ccccc5c4nc23)C1 [Example 23, (S)-N-(2-(3-methoxypyrrolidin-1-yl)ethyl)-7-oxo-7H-benzo[h]pyrido[2,1-b]quinazoline-12-carboxamide hydrochloride] | +++ ((+++) with a pIC50 above 6.3)
11 | CO[C@@H]1CCN(CCNC(=O)c2cccn3c(=O)c4ccc5ccccc5c4nc23)C1 [Example 24, (R)-N-(2-(3-methoxypyrrolidin-1-yl)ethyl)-7-oxo-7H-benzo[h]pyrido[2,1-b]quinazoline-12-carboxamide hydrochloride] | ++ ((++) with pIC50 5.8 to 6.3)
12 | O=C(NCCN1CC[C@@H](F)C1)c1cccn2c(=O)c3ccc4ccccc4c3nc12 [Example 25, (R)-N-(2-(3-fluoropyrrolidin-1-yl)ethyl)-7-oxo-7H-benzo[h]pyrido[2,1-b]quinazoline-12-carboxamide hydrochloride] | + ((+) is associated with a pIC50 5.02 to 5.8)
13 | C[C@@H](CN1C[C@H](O)[C@@H](O)C1)NC(=O)c1cccn2c(=O)c3ccc4ccccc4c3nc12 [Example 26, N-((S)-1-((3S,4S)-3,4-dihydroxy-pyrrolidin-1-yl)propan-2-yl)-7-oxo-7H-benzo[h]pyrido[2,1-b]quinazoline-12-carboxamide hydrochloride] | ++ ((++) with pIC50 5.8 to 6.3)
14 | C[C@H](CN1C[C@H](O)[C@@H](O)C1)NC(=O)c1cccn2c(=O)c3ccc4ccccc4c3nc12 [Example 27, N-((R)-1-((3S,4S)-3,4-dihydroxy-pyrrolidin-1-yl)propan-2-yl)-7-oxo-7H-benzo[h]pyrido[2,1-b]quinazoline-12-carboxamide hydrochloride] | ++ ((++) with pIC50 5.8 to 6.3)
15 | C[C@@H](CN1CC[C@H](O)C1)NC(=O)c1cccn2c(=O)c3ccc4ccccc4c3nc12 [Example 28, N-((S)-1-((S)-3-hydroxypyrrolidin-1-yl)propan-2-yl)-7-oxo-7H-benzo[h]pyrido[2,1-b]quinazoline-12-[(2S)-2-aminopropyl] pyrrolidin-3-ol; hydrochloride (165 mg, carboxamide hydrochloride] | ++ ((++) with pIC50 5.8 to 6.3)
16 | C[C@@H](CN1CC[C@@H](O)C1)NC(=O)c1cccn2c(=O)c3ccc4ccccc4c3nc12 [Example 29, N-((S)-1-((R)-3-hydroxypyrrolidin-1-yl)propan-2-yl)-7-oxo-7H-benzo[h]pyrido[2,1-b]quinazoline-12-carboxamide hydrochloride] | ++ ((++) with pIC50 5.8 to 6.3)
17 | C[C@H](CN1CC[C@H](O)C1)NC(=O)c1cccn2c(=O)c3ccc4ccccc4c3nc12 [Example 30, N-((R)-1-((S)-3-hydroxypyrrolidin-1-yl)propan-2-yl)-7-oxo-7H-benzo[h]pyrido[2,1-b]quinazoline-12-carboxamide hydrochloride] | +++ ((+++) with a pIC50 above 6.3)
18 | C[C@H](CN1CC[C@@H](O)C1)NC(=O)c1cccn2c(=O)c3ccc4ccccc4c3nc12 [Example 31, N-((R)-1-((R)-3-hydroxypyrrolidin-1-yl)propan-2-yl)-7-oxo-7H-benzo[h]pyrido[2,1-b]quinazoline-12-carboxamide hydrochloride] | +++ ((+++) with a pIC50 above 6.3)
19 | O=C(NCCO)c1cccn2c(=O)c3ccc4ccccc4c3nc12 [Example 32, N-(2-hydroxyethyl)-7-oxo-7H-benzo[h]pyrido[2,1-b]quinazoline-12-carboxamide; hydrochloride] | + ((+) is associated with a pIC50 5.02 to 5.8)
20 | O=C(NCCN1CC[C@H](F)C1)c1cccn2c(=O)c3ccc4ccccc4c3nc12 [Example 33, (S)-N-(2-(3-fluoropyrrolidin-1-yl)ethyl)-7-oxo-7H-benzo[h]pyrido[2,1-b]quinazoline-12-carboxamide; hydrochloride] | + ((+) is associated with a pIC50 5.02 to 5.8)
21 | O=C(NCCCN1CC2CCC(C1)O2)c1cccn2c(=O)c3ccc4ccccc4c3nc12 [Example 34, N-(3-(8-oxa-3-azabicyclo[3.2.1]octan-3-yl)propyl)-7-oxo-7H-benzo[h]pyrido[2,1-b]quinazoline-12-carboxamide; hydrochloride] | + ((+) is associated with a pIC50 5.02 to 5.8)
22 | C[C@@H]1CCCN1CCNC(=O)c1cccn2c(=O)c3ccc4ccccc4c3nc12 [Example 35, (R)-N-(2-(2-methylpyrrolidin-1-yl)ethyl)-7-oxo-7H-benzo[h]pyrido[2,1-b]quinazoline-12-carboxamide; hydrochloride 1] | + ((+) is associated with a pIC50 5.02 to 5.8)
23 | C[C@H]1CCCN1CCNC(=O)c1cccn2c(=O)c3ccc4ccccc4c3nc12 [Example 36, (S)-N-(2-(2-methylpyrrolidin-1-yl)ethyl)-7-oxo-7H-benzo[h]pyrido[2,1-b]quinazoline-12-yl)ethan-1-carboxamide; hydrochloride] | + ((+) is associated with a pIC50 5.02 to 5.8)
24 | CN1CC(CNC(=O)c2cccn3c(=O)c4ccc5ccccc5c4nc23)C1 [Example 37, N-((1-methylazetidin-3-yl)methyl)-7-oxo-7H-benzo[h]pyrido[2,1-b]quinazoline-12-carboxamide; hydrochloride] | + ((+) is associated with a pIC50 5.02 to 5.8)
25 | CN(C)CCCNC(=O)c1cccn2c(=O)c3ccc4ccccc4c3nc12 [Example 38, N-(3-(dimethylamino)propyl)-7-oxo-7H-benzo[h]pyrido[2,1-b]quinazoline-12-carboxamide; hydrochloride] | + ((+) is associated with a pIC50 5.02 to 5.8)
26 | O=C(NCCCN1CC[C@H](O)C1)c1cccn2c(=O)c3ccc4ccccc4c3nc12 [Example 39, (S)-N-(3-(3-hydroxypyrrolidin-1-yl)propyl)-7-oxo-7H-benzo[h]pyrido[2,1-b]quinazoline-12-carboxamide hydrochloride] | + ((+) is associated with a pIC50 5.02 to 5.8)
27 | O=C(NCCCN1CC[C@@H](O)C1)c1cccn2c(=O)c3ccc4ccccc4c3nc12 [Example 40, (R)-N-(3-(3-hydroxypyrrolidin-1-yl)propyl)-7-oxo-7H-benzo[h]pyrido[2,1-b]quinazoline-12-carboxamide; hydrochloride] | + ((+) is associated with a pIC50 5.02 to 5.8)
